Laboratory results taken from publication PMC12234328, “A naphthalimide derivative exerts potent antiplatelet and antithrombotic activities without a bleeding tendency” (Frontiers in Pharmacology, 2025).

Test system: GPIIb–IIIa activation in human platelets
Experiment: GPIIb-IIIa activation by flow cytometry (APC-PAC-1)
Type: cell-based
Conditions: 2.5 and 5 μM, collagen 1 μg/mL, n = 4
Procedure: Flow cytometry was performed as previously described ([Lien et al., 2017]). After 20 min of collagen stimulation, the human platelets were fixed and labeled with APC-conjugated PAC-1 antibodies for 30 min to detect the level of GPIIb–IIIa activation. After centrifugation and washing, the platelets were suspended in 1 mL of phosphate-buffered saline and analyzed using a CytoFLEX flow cytometer (Beckman Coulter Life Sciences, Indianapolis, IN, United States). In the flow cytometry setup, platelets were gated using forward scatter and side scatter, and the number of events was set to stop at 10,000 counts. All experiments were performed at least three times to ensure reliable results.
FIGURE 8 Effects of compound 6 on ATP release, calcium mobilization, and GPIIb–IIIa activation triggered by collagen in human platelets. Washed platelets (3.6 × 10^8 cells/mL) were treated with compound 6 (C6, 2.5 and 5 μM) or DMSO and then stimulated with collagen (1 μg/mL) to trigger ATP release (A), calcium mobilization (B), and GPIIb–IIIa activation (C) that were detected using luciferase/luciferin, Fura-2 AM, and APC–PAC1 antibodies, respectively. Data (A–C) are presented as means ± SEM (n = 4). **p < 0.01 and ***p < 0.001 compared with the resting group. #p < 0.05, ##p < 0.01, and ###p < 0.001 compared with the DMSO (solvent control) group.

## CCCCN1C(=O)c2cccc3c(NCCNC(=O)C45CC6CC(CC(C6)C4)C5)ccc(c23)C1=O [compound 6]
  GPIIb–IIIa activation: significantly reduce
